Measured values reported in patent publication US20140227335A1 (priority 2012, published 2014).
Entries after “also recorded” stand apart in the source; their conditions may differ. Where two headings read alike, the source gives them in different places.

Assays:
[1] = system: HIV-1 92TH599; test: HIV infectivity assay in TZM-bl cells; type: cell-based; conditions: 92TH599 (clade B, X4); for IC50: Human immunodeficiency virus 1, TZM-bl
[2] = system: HIV-1 93IN101; test: HIV infectivity assay in TZM-bl cells; type: cell-based; conditions: 93IN101 (clade C, R5); for IC50: Human immunodeficiency virus 1, TZM-bl
[3] = system: HIV-1 92UG024; test: HIV infectivity assay in TZM-bl cells; type: cell-based; conditions: 92UG024 (clade D, X4); for IC50: Human immunodeficiency virus 1, TZM-bl
[4] = system: HIV-1 92TH006; test: HIV infectivity assay in TZM-bl cells; type: cell-based; conditions: 92TH006 (clade E, R5); for IC50: Human immunodeficiency virus 1, TZM-bl
[5] = system: HIV-1 93TH053; test: HIV infectivity assay in TZM-bl cells; type: cell-based; conditions: 93TH053 (clade E, X4); for IC50: Human immunodeficiency virus 1, TZM-bl
[6] = system: HIV-1 93BR029; test: microbe, parasite or virus in culture; type: cell-based; conditions: 93BR029 (clade F, R5); for IC50: Human immunodeficiency virus 1, TZM-bl
[7] = system: HIV-1 RU132; test: HIV infectivity assay in TZM-bl cells; type: cell-based; conditions: RU132 (clade G, R5); for IC50: Human immunodeficiency virus 1, TZM-bl
[8] = system: SIVsyk1.2; test: SIV infectivity assay in TZM-bl cells; type: cell-based; conditions: Simian immunodeficiency virus, first value cell of the line (cells shifted; presumably DMEM)
[9] = system: HIV-20DC310342; test: HIV-2 infectivity assay in TZM-bl cells; type: cell-based; conditions: Human immunodeficiency virus 2, TZM-bl
[10] = system: HIV-1 92RW016; test: Anti-HIV efficacy in fresh human PBMC (reverse transcriptase activity); type: cell-based; conditions: Human immunodeficiency virus 1, PBMC, 168 h; 92RW016 (clade A, R5); PBMCs, MOI = 0.1, 7 days
[11] = system: HIV-1 96USNG31; test: as above; type: cell-based; conditions: Human immunodeficiency virus 1, PBMC, 168 h; 96USNG31 (clade C, X4/R5); PBMCs, MOI = 0.1, 7 days
[12] = system: HIV-1 92UG001; test: as above; type: cell-based; conditions: Human immunodeficiency virus 1, PBMC, 168 h; 92UG001 (clade D, X4/R5); PBMCs, MOI = 0.1, 7 days
[13] = system: HCVcc; parameters: species or system HCV
[14] = system: HCVcc; test: HCVcc cell attachment assay; type: cell-based, HCV; conditions: 300 μM PD, 37° C., 90 min; cell-bound viral RNA by qRT-PCR
[15] = system: Sindbis virus (SINV); test: Sindbis virus plaque assay on BHK-J cells; type: cell-based; conditions: 300 μM PD
[16] = system: Dengue virus (DenV), serotype 2 New Guinea C strain; test: Dengue virus plaque assay on Vero cells; type: cell-based; conditions: 300 μM PD
[17] = system: VSV-Gpp; type: cell-based, HIV lentivirus pseudotyped with VSV-G
[18] = system: HIV-1 (X4 NL4.3); test: HIV-1 sedimentation assay; conditions: 10 μM PD, 30 min, 37° C.
[19] = system: HIV-1 (R5 JR-CSF); test: Antiviral effect of PD before, during and after HIV-1 exposure (TZM-bl); type: cell-based
[20] = system: VSV-Gpp; type: physicochemical, HIV lentivirus pseudotyped with VSV-G
[21] = system: VSV-Gpp, HIVpp; type: cell-based, HIV pseudotyped lentiviruses
[22] = system: VSV-Gpp
[23] = Compound cytotoxicity in uninfected PBMC (MTS assay); conditions: human
[24] = system: freshly activated human PBMC; test: as above; conditions: freshly activated PBMCs, uninfected plates, MTS assay, 7 days

**Q.** Which results are given for N=C1Sc2ccccc2C2=NCCCN12 [PD, PD 404,182]?
**A.** IC50 (DMEM; IC90 per footnote) ([1]; PD in DMEM + 10% FBS): 5900 ± 300 nM; IC50 (Cervical Fluid; IC90 per footnote) ([1]; PD in cervical fluids): 6400 ± 500 nM; IC50 (Seminal Plasma; IC90 per footnote) ([1]; PD in seminal plasma): 6310 ± 520 nM; IC50 ([1]; PD in DMEM + 10% FBS): 1800 nM; IC50 ([1]; PD in cervical fluids): 2200 nM; IC50 ([1]; PD in seminal plasma): 1930 nM; IC50 (DMEM; IC90 per footnote) ([2]; PD in DMEM + 10% FBS): 5100 ± 300 nM; IC50 (Cervical Fluid; IC90 per footnote) ([2]; PD in cervical fluids): 5500 ± 200 nM; IC50 (Seminal Plasma; IC90 per footnote) ([2]; PD in seminal plasma): 5360 ± 370 nM; IC50 ([2]; PD in DMEM + 10% FBS): 1500 nM; IC50 ([2]; PD in cervical fluids): 1800 nM; IC50 ([2]; PD in seminal plasma): 1760 nM; IC50 (DMEM; IC90 per footnote) ([3]; PD in DMEM + 10% FBS): 1400 ± 200 nM; IC50 (Cervical Fluid; IC90 per footnote) ([3]; PD in cervical fluids): 1800 ± 200 nM; IC50 (Seminal Plasma; IC90 per footnote) ([3]; PD in seminal plasma): 1580 ± 200 nM; IC50 ([3]; PD in DMEM + 10% FBS): 3330 nM; IC50 ([3]; PD in cervical fluids): 550 nM; IC50 ([3]; PD in seminal plasma): 420 nM; IC50 (DMEM; IC90 per footnote) ([4]; PD in DMEM + 10% FBS): 6600 ± 400 nM; IC50 (Cervical Fluid; IC90 per footnote) ([4]; PD in cervical fluids): 7600 ± 600 nM; IC50 (Seminal Plasma; IC90 per footnote) ([4]; PD in seminal plasma): 6730 ± 510 nM; IC50 ([4]; PD in DMEM + 10% FBS): 1800 nM; IC50 ([4]; PD in cervical fluids): 2300 nM; IC50 ([4]; PD in seminal plasma): 1960 nM; IC90 ([5]; PD in DMEM + 10% FBS): 5300 ± 300 nM; IC90 ([5]; PD in cervical fluids): 6400 ± 400 nM; IC90 ([5]; PD in seminal plasma): 6650 ± 480 nM; IC50 ([5]; PD in DMEM + 10% FBS): 1400 nM; IC50 ([5]; PD in cervical fluids): 1800 nM; IC50 ([5]; PD in seminal plasma): 1670 nM; IC90 ([6]; PD in DMEM + 10% FBS): 3500 ± 200 nM; IC90 ([6]; PD in cervical fluids): 4600 ± 300 nM; IC90 ([6]; PD in seminal plasma): 3720 ± 260 nM; IC50 ([6]; PD in DMEM + 10% FBS): 700 nM; IC50 ([6]; PD in cervical fluids): 1200 nM; IC50 ([6]; PD in seminal plasma): 850 nM; IC50 ([7]; PD in DMEM + 10% FBS): 700 nM; IC50 ([7]; PD in cervical fluids): 900 nM; IC50 ([7]; PD in seminal plasma): 740 nM; IC90 ([7]; PD in DMEM + 10% FBS): 3100 ± 200 nM; IC90 ([7]; PD in cervical fluids): 3900 ± 500 nM; IC90 ([7]; PD in seminal plasma): 3280 ± 220 nM; IC50 [8]: 1900 nM; IC50 [9]: 1800 nM; IC50 [10]: 220 nM; IC90 [10]: 540 nM; IC50 [11]: 140 nM; IC90 [11]: 1620 nM; IC50 [12]: 1110 nM; IC90 [12]: 1890 nM; HCVcc virion lysis [13]: 27%; attachment of PD-treated HCVcc to cells [14]: binds to cells comparably to control DMSO-treated virus; effect on infectivity of SINV [15]: no significant inhibitory effect; effect on infectivity of DenV [16]: no significant inhibitory effect; reversal of PD's antiviral effect by liposomes [17]: not able to reverse PD's antiviral effect; sedimentation of HIV capsid and RT in sucrose gradient [18]: viral capsid and RT relocate to the top of the gradient; antiviral effect, PD added after virus inoculation ([19]; 10 μM PD, 1, 2, 4 and 8 h post treatment): loses its antiviral effect; antiviral effect, extended preincubation of PD with cells ([19]; 10 μM PD, >16 h prior to virus inoculation): significantly reduces the compound's antiviral efficacy; antiviral effect, PD added together with the virus ([19]; 10 μM PD, time zero): significantly inhibits HIV-1 infection; antiviral effect, PD added before the virus ([19]; 10 μM PD, up to 8 h before the addition of the virus): retains its full potency; time antiviral activity is retained in cell culture prior to the addition of HIV-1 ([19]; cell culture at 37° C.): at least 8 hours; long-term stability (antiviral potency) ([20]; pH 4): retains full antiviral potency; also recorded: retains its full potency; long-term stability ([20]; pH 7): stable only at room temperature and 4 °C; also recorded: significantly compromised PD activity after 2 weeks; stability in HEC gel ([20]; pH 7): not stable; increase in IC50 [21]: 50-80 fold; stability in acidic buffer ([22]; pH 4): highly stable; activity loss ([22]; pH 8): no activity loss; antiviral activity lost ([22]; pH 8): ~20%; activity loss ([22]; pH 10): ~20%; antiviral activity lost ([22]; pH 10): ~50%; cytotoxicity at 7 days, 200 μM [23]: 48%; CC50 at 7 days ([23]; CC50, freshly activated PBMCs, uninfected plates, MTS assay, 7 days): ~200000 nM; CC50 [24]: > 200000 nM
